{"source": "ChEMBL document CHEMBL1268953", "about": "“Discovery of novel 2-aryl-4-benzoyl-imidazoles targeting the colchicines binding site in tubulin as potential anticancer agents” (J Med Chem, 2010)", "key": {"[1]": {"assay": "Aqueous solubility of the compound in buffer at pH 7 after 24 hrs by shake-flask method", "format": "physicochemical"}, "[2]": {"assay": "Aqueous solubility of the compound in water after 24 hrs by shake-flask method", "format": "physicochemical"}, "[3]": {"assay": "Antitumor activity against mouse B16-F1 cells xenografted in C57/BL mouse assessed as reduction of tumor growth at 60 mg/kg, ip administered 7 days after tumor inoculation qd for 14 days", "format": "functional", "set-up": "scale not given: the % may be the effect or the level left", "details": "route intraperitoneal"}, "[4]": {"tested_on": "Mus musculus", "assay": "Toxicity in mouse B16-F1 cells xenografted C57/BL mouse assessed as reduction of body weight at 60 mg/kg, ip administered 7 days after tumor inoculation qd for 14 days", "format": "organism-based", "set-up": "dose 60 mg/kg, route intraperitoneal", "details": "in vivo"}, "[5]": {"tested_on": "PPC-1", "assay": "Cytotoxicity against human PPC1 cells after 48 hrs by sulforhodamine B assay", "format": "functional, cell-based", "details": "Homo sapiens, PPC-1, 48 h"}, "[6]": {"assay": "Cytotoxicity against mouse B16-F1 cells after 48 hrs by sulforhodamine B assay", "format": "functional, cell-based", "details": "Mus musculus, B16-F1, 48 h"}, "[7]": {"tested_on": "A-375", "assay": "Cytotoxicity against human A375 cells after 48 hrs by sulforhodamine B assay", "format": "functional, cell-based", "details": "Homo sapiens, A-375, 48 h"}, "[8]": {"assay": "Cytotoxicity against human WM164 cells after 48 hrs by sulforhodamine B assay", "format": "functional, cell-based", "details": "Homo sapiens, WM164, 48 h"}, "[9]": {"tested_on": "PC-3", "assay": "cells", "details": "Homo sapiens, PC-3, 48 h", "description": "Cytotoxicity against human PC3 cells after 48 hrs by sulforhodamine B assay"}, "[10]": {"tested_on": "LNCaP", "assay": "Cytotoxicity against human LNCAP cells after 48 hrs by sulforhodamine B assay", "format": "functional, cell-based"}, "[11]": {"tested_on": "DU-145", "assay": "cells", "details": "Homo sapiens, DU-145, 48 h", "description": "Cytotoxicity against human DU145 cells after 48 hrs by sulforhodamine B assay"}, "[12]": {"assay": "Cytotoxicity against human multidrug-resistant MDA-MB-435/LCCMDR1 cells after 48 hrs by sulforhodamine B assay", "format": "functional, cell-based", "details": "MDA-MB-435, 48 h"}, "[13]": {"tested_on": "MDA-MB-435", "assay": "cells", "details": "Homo sapiens, MDA-MB-435, 48 h", "description": "Cytotoxicity against human MDA-MB-435 cells after 48 hrs by sulforhodamine B assay"}, "[14]": {"tested_on": "Mus musculus", "assay": "Toxicity in mouse B16-F1 cells xenografted C57/BL mouse assessed as reduction of body weight at 30 mg/kg, ip administered 7 days after tumor inoculation qd for 14 days", "format": "organism-based", "set-up": "dose 30 mg/kg, route intraperitoneal", "details": "in vivo"}, "[15]": {"tested_on": "Mus musculus", "assay": "Toxicity in mouse B16-F1 cells xenografted C57/BL mouse assessed as reduction of body weight at 10 mg/kg, ip administered 7 days after tumor inoculation qd for 14 days", "format": "organism-based", "set-up": "dose 10 mg/kg, route intraperitoneal", "details": "in vivo"}}}
{"compound": "COc1ccc(/C=C\\c2cc(OC)c(OC)c(OC)c2)cc1O", "note": "[COMBRETASTATIN A4]", "values": [{"measurement": "solubility thermodynamic at 24 h", "setting": "[1]", "value": 1.04, "unit": "µg/mL"}, {"measurement": "solubility thermodynamic at 24 h", "setting": "[2]", "value": 2.83, "unit": "µg/mL"}]}
{"compound": "COc1cc(C(=O)c2csc(-c3ccc(N(C)C)cc3)n2)cc(OC)c1OC", "values": [{"measurement": "solubility thermodynamic at 24 h", "setting": "[1]", "value": 0.909, "unit": "µg/mL"}, {"measurement": "solubility thermodynamic at 24 h", "setting": "[2]", "value": 0.833, "unit": "µg/mL"}]}
{"compound": "CN(C)/N=N/c1[nH]cnc1C(N)=O", "note": "[DACARBAZINE]", "values": [{"measurement": "Activity", "setting": "[3]", "value": 51, "unit": "%"}, {"measurement": "Activity", "setting": "[4]", "value": "Non-toxic"}]}
{"compound": "COc1cc(C(=O)c2c[nH]c(-c3ccc(N(C)C)cc3)n2)cc(OC)c1OC", "values": [{"measurement": "solubility thermodynamic at 24 h", "setting": "[1]", "value": 48.9, "unit": "µg/mL"}, {"measurement": "IC50", "setting": "[5]", "value": 67, "unit": "nM"}, {"measurement": "IC50", "setting": "[6]", "value": 361, "unit": "nM"}, {"measurement": "IC50", "setting": "[7]", "value": 82, "unit": "nM"}, {"measurement": "IC50", "setting": "[8]", "value": 80, "unit": "nM"}, {"measurement": "solubility thermodynamic at 24 h", "setting": "[2]", "value": 11.3, "unit": "µg/mL"}, {"measurement": "IC50", "setting": "[9]", "value": 92, "unit": "nM"}, {"measurement": "IC50", "setting": "[10]", "value": 58, "unit": "nM"}, {"measurement": "IC50", "setting": "[11]", "value": 95, "unit": "nM"}]}
{"compound": "COc1ccc(-c2ncc(C(=O)c3ccc(F)cc3)n2S(=O)(=O)c2ccccc2)cc1", "values": [{"measurement": "IC50", "setting": "[5]", "value": 32, "unit": "nM"}, {"measurement": "IC50", "setting": "[6]", "value": 71, "unit": "nM"}, {"measurement": "IC50", "setting": "[7]", "value": 36, "unit": "nM"}, {"measurement": "IC50", "setting": "[12]", "value": 38, "unit": "nM"}, {"measurement": "IC50", "setting": "[13]", "value": 30, "unit": "nM"}, {"measurement": "IC50", "setting": "[8]", "value": 43, "unit": "nM"}, {"measurement": "IC50", "setting": "[9]", "value": 33, "unit": "nM"}, {"measurement": "IC50", "setting": "[10]", "value": 31, "unit": "nM"}, {"measurement": "IC50", "setting": "[11]", "value": 52, "unit": "nM"}]}
{"compound": "COc1ccc(-c2nc(C(=O)c3ccc(F)cc3)c[nH]2)cc1", "values": [{"measurement": "Activity", "setting": "[14]", "value": "Non-toxic"}, {"measurement": "IC50", "setting": "[13]", "value": 30, "unit": "nM"}, {"measurement": "Activity", "setting": "[15]", "value": "Non-toxic"}]}
{"compound": "CC(=O)O[C@H]1C(=O)[C@@]2(C)[C@H]([C@H](OC(=O)c3ccccc3)[C@]3(O)C[C@H](OC(=O)[C@H](O)[C@@H](NC(=O)c4ccccc4)c4ccccc4)C(C)=C1C3(C)C)[C@]1(OC(C)=O)CO[C@@H]1C[C@@H]2O", "note": "[PACLITAXEL]", "values": [{"measurement": "solubility thermodynamic at 24 h", "setting": "[1]", "value": 0.137, "unit": "µg/mL"}, {"measurement": "solubility thermodynamic at 24 h", "setting": "[2]", "value": 0.021, "unit": "µg/mL"}]}
{"compound": "COc1cc(-c2ncc(C(=O)c3ccc(F)cc3)n2S(=O)(=O)c2ccccc2)cc(OC)c1OC", "values": [{"measurement": "IC50", "setting": "[5]", "value": "> 10000", "unit": "nM"}, {"measurement": "IC50", "setting": "[6]", "value": "> 10000", "unit": "nM"}, {"measurement": "IC50", "setting": "[7]", "value": 3840, "unit": "nM"}, {"measurement": "IC50", "setting": "[8]", "value": "> 10000", "unit": "nM"}, {"measurement": "IC50", "setting": "[9]", "value": "> 10000", "unit": "nM"}, {"measurement": "IC50", "setting": "[10]", "value": "> 10000", "unit": "nM"}, {"measurement": "IC50", "setting": "[11]", "value": "> 10000", "unit": "nM"}]}
{"compound": "Cc1ccc(-c2nc(C(=O)c3ccc(F)cc3)c[nH]2)cc1", "values": [{"measurement": "IC50", "setting": "[5]", "value": 54, "unit": "nM"}, {"measurement": "IC50", "setting": "[6]", "value": 222, "unit": "nM"}, {"measurement": "IC50", "setting": "[7]", "value": 142, "unit": "nM"}, {"measurement": "IC50", "setting": "[8]", "value": 156, "unit": "nM"}, {"measurement": "IC50", "setting": "[9]", "value": 65, "unit": "nM"}, {"measurement": "IC50", "setting": "[10]", "value": 45, "unit": "nM"}, {"measurement": "IC50", "setting": "[11]", "value": 78, "unit": "nM"}]}
{"compound": "O=C(c1ccc(F)cc1)c1cnc(-c2ccccc2C(F)(F)F)n1S(=O)(=O)c1ccccc1", "values": [{"measurement": "IC50", "setting": "[5]", "value": "> 10000", "unit": "nM"}, {"measurement": "IC50", "setting": "[6]", "value": "> 10000", "unit": "nM"}, {"measurement": "IC50", "setting": "[7]", "value": "> 10000", "unit": "nM"}, {"measurement": "IC50", "setting": "[8]", "value": "> 10000", "unit": "nM"}, {"measurement": "IC50", "setting": "[9]", "value": "> 10000", "unit": "nM"}, {"measurement": "IC50", "setting": "[10]", "value": "> 10000", "unit": "nM"}, {"measurement": "IC50", "setting": "[11]", "value": "> 10000", "unit": "nM"}]}
{"compound": "O=C(c1ccc(F)cc1)c1cnc(-c2ccc(OCc3ccccc3)cc2)n1S(=O)(=O)c1ccccc1", "values": [{"measurement": "IC50", "setting": "[5]", "value": 38, "unit": "nM"}, {"measurement": "IC50", "setting": "[6]", "value": 110, "unit": "nM"}, {"measurement": "IC50", "setting": "[7]", "value": 64, "unit": "nM"}, {"measurement": "IC50", "setting": "[8]", "value": 48, "unit": "nM"}, {"measurement": "IC50", "setting": "[9]", "value": 75, "unit": "nM"}, {"measurement": "IC50", "setting": "[10]", "value": 35, "unit": "nM"}, {"measurement": "IC50", "setting": "[11]", "value": 58, "unit": "nM"}]}
{"compound": "COc1cc(-c2nc(C(=O)c3ccc(F)cc3)c[nH]2)cc(OC)c1OC", "values": [{"measurement": "IC50", "setting": "[5]", "value": "> 10000", "unit": "nM"}, {"measurement": "IC50", "setting": "[6]", "value": "> 10000", "unit": "nM"}, {"measurement": "IC50", "setting": "[7]", "value": "> 10000", "unit": "nM"}, {"measurement": "IC50", "setting": "[8]", "value": "> 10000", "unit": "nM"}, {"measurement": "IC50", "setting": "[9]", "value": "> 10000", "unit": "nM"}, {"measurement": "IC50", "setting": "[10]", "value": "> 10000", "unit": "nM"}, {"measurement": "IC50", "setting": "[11]", "value": "> 10000", "unit": "nM"}]}
{"compound": "COc1cccc(C(=O)c2cnc(-c3ccccc3)n2S(=O)(=O)c2ccccc2)c1", "values": [{"measurement": "IC50", "setting": "[5]", "value": "> 10000", "unit": "nM"}, {"measurement": "IC50", "setting": "[6]", "value": "> 10000", "unit": "nM"}, {"measurement": "IC50", "setting": "[7]", "value": "> 10000", "unit": "nM"}, {"measurement": "IC50", "setting": "[8]", "value": "> 10000", "unit": "nM"}, {"measurement": "IC50", "setting": "[9]", "value": "> 10000", "unit": "nM"}, {"measurement": "IC50", "setting": "[10]", "value": "> 10000", "unit": "nM"}, {"measurement": "IC50", "setting": "[11]", "value": "> 10000", "unit": "nM"}]}
